Reference: PubChem BioAssay AID1195 (EPA DSSTox, 2008)

Tested on: human maximum recommended daily dose, FDA database
Assay: DSSTox (FDAMDD) FDA Maximum (Recommended) Daily Dose Database
Conditions: stronger effect = lower value
Outline: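 MRDD values come from clinical trials with daily oral dosing, usually for 3–12 months, for the average adult, in mg/day converted to mg/kg-bw/day assuming 60 kg. Antineoplastic mg/m2 doses are divided by 37. Activity score maps log10(1/MRDD mmol) onto 1–100.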

[1] = TherapeuticCategory: antibacterial
[2] = TherapeuticCategory: skeletal muscle relaxant
[3] = TherapeuticCategory: anticholinergic
[4] = TherapeuticCategory: local anesthetic
[5] = TherapeuticCategory: antihypertensive
[6] = TherapeuticCategory: diagnostic aid
[7] = TherapeuticCategory: anti inflammatory

CCC(=O)O[C@H]1[C@H](O[C@@H]2[C@@H](C)[C@H](O[C@H]3C[C@@](C)(OC)[C@@H](O)[C@H](C)O3)[C@@H](C)C(=O)O[C@H](CC)[C@@](C)(O)[C@H](O)[C@@H](C)C(=O)[C@H](C)C[C@@]2(C)O)O[C@H](C)C[C@@H]1N(C)C
maximum recommended daily dose (mmol/kg-bw/day) [1]: 0.0844

CN(C)[C@@H]1C(=O)C(C(N)=O)=C(O)[C@@]2(O)C(=O)C3=C(O)c4c(O)ccc(Cl)c4[C@@H](O)[C@H]3C[C@@H]12
maximum recommended daily dose (mmol/kg-bw/day) [1]: 0.0323

CN(CCOc1ccc(CC2SC(=O)NC2=O)cc1)c1ccccn1 (configuration not stated)
maximum recommended daily dose (mmol/kg-bw/day) (TherapeuticCategory: antidiabetic): 0.000281

CC(C)(C)NCC(O)COc1cccc2c1C[C@H](O)[C@H](O)C2 (some centres not stated)
maximum recommended daily dose (mmol/kg-bw/day) (TherapeuticCategory: antihypertensive, antianginal): 0.0346

CC[N+](CC)(CC)CCOc1cccc(OCC[N+](CC)(CC)CC)c1OCC[N+](CC)(CC)CC
maximum recommended daily dose (mmol/kg-bw/day) [2]: 0.00224

CCN(CC)CCOCCOC(=O)C1(c2ccccc2)CCCC1
maximum recommended daily dose (mmol/kg-bw/day) (TherapeuticCategory: antitussive): 0.006

CN1C(CCl)Nc2cc(Cl)c(S(N)(=O)=O)cc2S1(=O)=O (configuration not stated)
maximum recommended daily dose (mmol/kg-bw/day) (TherapeuticCategory: diuretic, antihypertensive): 0.000464

CCOC(=O)C1=C[C@]2(CC)CCCN3CCc4c(n1c1ccccc41)[C@@H]32
maximum recommended daily dose (mmol/kg-bw/day) (TherapeuticCategory: cerebral vasodilator): 0.00143

CN[C@@H]1[C@H](O[C@H]2[C@H](O[C@H]3[C@H](O)[C@@H](O)[C@H](N=C(N)N)[C@@H](O)[C@@H]3N=C(N)N)O[C@@H](C)[C@]2(O)CO)O[C@@H](CO)[C@H](O)[C@H]1O
maximum recommended daily dose (mmol/kg-bw/day) [1]: 0.0286

CC(C)NNC(=O)c1ccncc1
maximum recommended daily dose (mmol/kg-bw/day) (TherapeuticCategory: monoamine oxidase inhibitor, antidepressant): 0.0139

CC[N+](C)(C)c1cccc(O)c1
maximum recommended daily dose (mmol/kg-bw/day) (TherapeuticCategory: cholinergic): 0.00347

CO[C@@H]1[C@@H](O[C@@H]2O[C@H](C)[C@@H](O[C@H]3C[C@@](C)(O)[C@@H](O)[C@H](C)O3)[C@H](N(C)C)[C@H]2O)[C@@H](CC=O)C[C@@H](C)[C@@H](O[C@@H]2CC[C@H](N(C)C)[C@@H](C)O2)/C=C/C=C/C[C@@H](C)OC(=O)C[C@H]1O
maximum recommended daily dose (mmol/kg-bw/day) [1]: 0.0791

Nc1ccn([C@@H]2O[C@H](CO)[C@@H](O)C2O)c(=O)n1 (some centres not stated)
maximum recommended daily dose (mmol/kg-bw/day) (TherapeuticCategory: antineoplastic, antiviral): 0.0111

CCCN(CCC)C(=O)C(CCC(=O)O)NC(=O)c1ccccc1 (configuration not stated)
maximum recommended daily dose (mmol/kg-bw/day) [3]: 0.0798

CC(C)NCC(O)COc1ccc(CC(N)=O)cc1 (configuration not stated)
maximum recommended daily dose (mmol/kg-bw/day) (TherapeuticCategory: antihypertensive, antianginal, antiarrhythmic): 0.0125

COc1ccc(C2C(=O)c3ccccc3C2=O)cc1
maximum recommended daily dose (mmol/kg-bw/day) (TherapeuticCategory: anticoagulant): 0.0198

CCC(=O)O[C@](Cc1ccccc1)(c1ccccc1)[C@H](C)CN(C)C
maximum recommended daily dose (mmol/kg-bw/day) (TherapeuticCategory: narcotic analgesic): 0.0191

COc1cc(C(=O)NC2CCCNC2)cc(OC)c1OC (configuration not stated)
maximum recommended daily dose (mmol/kg-bw/day) (TherapeuticCategory: antiulcerative): 0.017

Oc1c(I)cc(I)c2cccnc12
maximum recommended daily dose (mmol/kg-bw/day) (TherapeuticCategory: antiamebic): 0.0756

CN[C@@H]1[C@@H](O)[C@@H](O[C@@H]2[C@@H](O)[C@H](O[C@H]3O[C@H](C(C)N)CC[C@H]3N)[C@@H](N)C[C@H]2N)OC[C@]1(C)O (some centres not stated)
maximum recommended daily dose (mmol/kg-bw/day) [1]: 0.00647

Cc1cccc(C)c1NC(=O)C1CCCCN1C (configuration not stated)
maximum recommended daily dose (mmol/kg-bw/day) [4]: 0.0271

NCC(=O)O
maximum recommended daily dose (mmol/kg-bw/day) (TherapeuticCategory: none): 1.33

O=c1cc[nH]c(=S)[nH]1
maximum recommended daily dose (mmol/kg-bw/day) (TherapeuticCategory: thyroid depressant): 0.026

CC(=O)OCC1=C(C(=O)O)N2C(=O)[C@@H](NC(=O)CSc3ccncc3)[C@H]2SC1
maximum recommended daily dose (mmol/kg-bw/day) [1]: 0.236

OCc1cccnc1
maximum recommended daily dose (mmol/kg-bw/day) (TherapeuticCategory: vasodilator): 0.0458

CCc1oc2ccccc2c1C(=O)c1cc(Br)c(O)c(Br)c1
maximum recommended daily dose (mmol/kg-bw/day) (TherapeuticCategory: uricosuric): 0.0118

CCCCc1oc2ccccc2c1C(=O)c1cc(I)c(OCCN(CC)CC)c(I)c1
maximum recommended daily dose (mmol/kg-bw/day) (TherapeuticCategory: antiarrhythmic, antianginal): 0.0414

NC(=O)OCC(COC(N)=O)c1ccccc1
maximum recommended daily dose (mmol/kg-bw/day) (TherapeuticCategory: anticonvulsant): 0.252

Cc1cc(=O)[nH]c(=S)[nH]1
maximum recommended daily dose (mmol/kg-bw/day) (TherapeuticCategory: thyroid inhibitor): 0.0703

C=C1/C(=C/C=C2/CCC[C@]3(C)[C@@H]([C@H](C)CCCC(C)C)CC[C@@H]23)C[C@@H](O)C[C@@H]1O
maximum recommended daily dose (mmol/kg-bw/day) (TherapeuticCategory: vitamin D source): 7.49e-06

CCOc1nc2cccc(C(=O)O)c2n1Cc1ccc(-c2ccccc2-c2nn[nH]n2)cc1
maximum recommended daily dose (mmol/kg-bw/day) [5]: 0.000606

NCCCC(O)(P(=O)(O)O)P(=O)(O)O
maximum recommended daily dose (mmol/kg-bw/day) (TherapeuticCategory: antiosteoporotic): 0.00268

CC[C@]1(O)CC[C@H]2[C@@H]3CCC4=CCCC[C@@H]4[C@H]3CC[C@@]21C
maximum recommended daily dose (mmol/kg-bw/day) (TherapeuticCategory: anabolic): 0.000231

CN(C)[C@@H]1C(=O)C(C(=O)NCN2CCCC2)=C(O)[C@@]2(O)C(=O)C3=C(O)c4c(O)cccc4[C@@](C)(O)C3C[C@@H]12 (some centres not stated)
maximum recommended daily dose (mmol/kg-bw/day) [1]: 0.0111

O=C1CN=C(c2ccccc2)c2cc(Cl)ccc2N1CC(F)(F)F
maximum recommended daily dose (mmol/kg-bw/day) (TherapeuticCategory: anxiolytic): 0.00757

CC(C)C[C@H](N)C(=O)O
maximum recommended daily dose (mmol/kg-bw/day) (TherapeuticCategory: nutrient): 0.762

CCN(CC)CCOC(=O)C1(C2CCCCC2)CCCCC1
maximum recommended daily dose (mmol/kg-bw/day) [3]: 0.0043

C[C@]12COC(=O)C[C@@H]1CC[C@@H]1[C@@H]2CC[C@@]2(C)[C@H]1CC[C@]2(C)O
maximum recommended daily dose (mmol/kg-bw/day) (TherapeuticCategory: androgen): 0.00109

Nc1c(Br)cc(Br)cc1CNC1CCC(O)CC1 (configuration not stated)
maximum recommended daily dose (mmol/kg-bw/day) (TherapeuticCategory: expectorant): 0.00529

CCS(=O)(=O)CCn1c([N+](=O)[O-])cnc1C
maximum recommended daily dose (mmol/kg-bw/day) (TherapeuticCategory: antiprotozoal, antiamebic): 0.135

CNC(=O)Oc1ccc2c(c1)[C@]1(C)CCN(C)[C@@H]1N2C
maximum recommended daily dose (mmol/kg-bw/day) (TherapeuticCategory: cholinergic, miotic): 6.07e-05

Nc1nc2c(ncn2COCCO)c(=O)[nH]1
maximum recommended daily dose (mmol/kg-bw/day) (TherapeuticCategory: antiviral): 0.0591

CCC1(CC)C(=O)NC(=O)NC1=O
maximum recommended daily dose (mmol/kg-bw/day) (TherapeuticCategory: sedative, hypnotic): 0.0543

C[C@H]1CC[C@@H]2N(C1)C[C@@H]1[C@H]([C@@H](O)[C@H](O)[C@]3(O)[C@H]1C[C@@]14O[C@@]5(O)[C@@H]([C@@H](O)[C@@H](O)[C@@H]31)[C@]4(C)CC[C@@H]5O)[C@]2(C)O
maximum recommended daily dose (mmol/kg-bw/day) (TherapeuticCategory: none): 4.76e-05

Nc1c(N=Nc2ccc(-c3ccc(N=Nc4cc(S(=O)(=O)O)c5ccccc5c4N)cc3)cc2)cc(S(=O)(=O)O)c2ccccc12
maximum recommended daily dose (mmol/kg-bw/day) [6]: 0.00538

CO/N=C(\C(=O)N[C@@H]1C(=O)N2C(C(=O)O)=CCS[C@H]12)c1csc(N)n1
maximum recommended daily dose (mmol/kg-bw/day) [1]: 0.261

NC(=O)CS(=O)C(c1ccccc1)c1ccccc1 (configuration not stated)
maximum recommended daily dose (mmol/kg-bw/day) (TherapeuticCategory: CNS stimulant, adrenergic): 0.0122

Fc1ccc([C@@H]2CCNC[C@H]2COc2ccc3c(c2)OCO3)cc1
maximum recommended daily dose (mmol/kg-bw/day) (TherapeuticCategory: antidepressant): 0.00253

CCN(CC)CCc1nc(-c2ccccc2)no1
maximum recommended daily dose (mmol/kg-bw/day) [7]: 0.0136

CCN(CCO)CCCC(C)Nc1ccnc2cc(Cl)ccc12 (configuration not stated)
maximum recommended daily dose (mmol/kg-bw/day) (TherapeuticCategory: antimalarial, antirheumatic, lupus erythematosus suppressant): 0.0298

CCCCOc1ccc(C[N+]2(C)[C@@H]3CC[C@H]2CC(OC(=O)[C@H](CO)c2ccccc2)C3)cc1 (some centres not stated)
maximum recommended daily dose (mmol/kg-bw/day) (TherapeuticCategory: antispasmotic, anticholinergic): 0.000915

CCCCN1CCCCC1C(=O)Nc1c(C)cccc1C (configuration not stated)
maximum recommended daily dose (mmol/kg-bw/day) [4]: 0.013

CC(C)Cc1ccc(C(C)C(=O)OCc2ccccn2)cc1 (configuration not stated)
maximum recommended daily dose (mmol/kg-bw/day) [7]: 0.135

CC(=O)NCc1c(I)c(NC(C)=O)c(I)c(C(=O)O)c1I
maximum recommended daily dose (mmol/kg-bw/day) [6]: 0.159

CCCC(CCC)C(=O)OC1C[C@H]2CC[C@@H](C1)[N+]2(C)C (some centres not stated)
maximum recommended daily dose (mmol/kg-bw/day) [3]: 0.0069

OCc1cc(C(O)CNCCCCCCOCCCCc2ccccc2)ccc1O (configuration not stated)
maximum recommended daily dose (mmol/kg-bw/day) (TherapeuticCategory: bronchodilator): 3.37e-06

CN(C)CCOC1=Cc2ccccc2Sc2ccc(Cl)cc21
maximum recommended daily dose (mmol/kg-bw/day) (TherapeuticCategory: antipsychotic): 0.0226

CCCC(=O)N1CCCN(c2nc(N)c3cc(OC)c(OC)cc3n2)CC1
maximum recommended daily dose (mmol/kg-bw/day) [5]: 0.000134

CN[C@@H]1[C@@H](O)[C@@H](O[C@@H]2[C@@H](O)[C@H](OC3OC(CN)=CCC3N)[C@@H](N)C[C@H]2N)OC[C@]1(C)O (some centres not stated)
maximum recommended daily dose (mmol/kg-bw/day) [1]: 0.0067

Cc1cc(C)cc(OCC2CNC(=O)O2)c1 (configuration not stated)
maximum recommended daily dose (mmol/kg-bw/day) [2]: 0.484

CC(C)COCC(CN(Cc1ccccc1)c1ccccc1)N1CCCC1 (configuration not stated)
maximum recommended daily dose (mmol/kg-bw/day) (TherapeuticCategory: antianginal): 0.0182

CC1=C(C(=O)O)N2C(=O)[C@@H](NC(=O)[C@H](N)C3=CCC=CC3)[C@H]2SC1
maximum recommended daily dose (mmol/kg-bw/day) [1]: 0.191

CC(C)NCC(O)COc1ccc(O)cc1 (configuration not stated)
maximum recommended daily dose (mmol/kg-bw/day) (TherapeuticCategory: cardiotonic): 0.00148

C[N+](C)(C)CCCCCCCCCC[N+](C)(C)C
maximum recommended daily dose (mmol/kg-bw/day) [2]: 9.97e-05

CN1CCC(=C2c3ccccc3CCc3cccnc32)CC1
maximum recommended daily dose (mmol/kg-bw/day) (TherapeuticCategory: antihistaminic): 0.000115

CC(C)(C)NC(=O)[C@@H]1CN(Cc2cccnc2)CCN1C[C@@H](O)C[C@@H](Cc1ccccc1)C(=O)N[C@H]1c2ccccc2C[C@H]1O
maximum recommended daily dose (mmol/kg-bw/day) (TherapeuticCategory: antiviral): 0.0264

C=CCN1CC[C@]23CCCC[C@H]2[C@H]1Cc1ccc(O)cc13
maximum recommended daily dose (mmol/kg-bw/day) (TherapeuticCategory: narcotic antagonist): 0.000235

CNC(=O)c1c(I)c(NC(C)=O)c(I)c(C(=O)O)c1I
maximum recommended daily dose (mmol/kg-bw/day) [6]: 0.163

CCN(CCCCOC(=O)c1ccc(OC)c(OC)c1)C(C)Cc1ccc(OC)cc1 (configuration not stated)
maximum recommended daily dose (mmol/kg-bw/day) (TherapeuticCategory: antispasmodic): 0.0157

CN1C(=O)CN=C(c2ccccc2)c2cc(Cl)ccc21
maximum recommended daily dose (mmol/kg-bw/day) (TherapeuticCategory: anxiolytic, skeletal muscle relaxant): 0.00234

N[C@@H](Cc1cc(I)c(Oc2ccc(O)c(I)c2)c(I)c1)C(=O)O
maximum recommended daily dose (mmol/kg-bw/day) (TherapeuticCategory: thyroid hormone): 2.57e-06

Nc1nc2ncc(CNc3ccc(C(=O)N[C@@H](CCC(=O)O)C(=O)O)cc3)nc2c(=O)[nH]1
maximum recommended daily dose (mmol/kg-bw/day) (TherapeuticCategory: hematopoetic): 3.01e-05
